No end group written: not given here.
How the values were obtained:
Assay in all cases: biochemical
Format in all cases: binding
HLA-A3.2 (A*0301) = HLA-A3.2 (A*0301) (Homo sapiens, UniProt P04439)
HLA-A11 (A*1101) = HLA-A11 (A*1101) (Homo sapiens, UniProt P04439, A114D/D185E/E176A/F33Y/L180Q/S129P/T187R)
A31 (A*3101) = A31 (A*3101) (Homo sapiens, UniProt P04439, A270S/D185E/E176V/E277Q/F33T/G231S/G80R/H175R/I121M/I218V/I322F/K168Q/L300P/L318F/M331R/P217A/Q94H/R138Q/T323A/T345S/T97I/V358M)
A*3301 = A*3301 (Homo sapiens, UniProt P04439, A270S/D185E/E176V/E277Q/E87N/F33T/G231S/H175R/I121M/I218V/I322F/K168Q/K210R/L300P/L318F/M331R/P217A/Q86R/Q94H/R138Q/T323A/T345S/T97I/V358M/Y195H)
A*6801 = A*6801 (Homo sapiens, UniProt P04439, A269V/D185E/E176V/E277Q/E87N/F33Y/G231S/I121M/I166T/I218V/L180W/L300P/L318F/N151K/P208A/P217A/Q86R/R169H/T345S)

| Sequence | IC50 (HLA-A3.2 (A*0301)) [nM] | IC50 (HLA-A11 (A*1101)) [nM] | IC50 (A31 (A*3101)) [nM] | IC50 (A*3301) [nM] | IC50 (A*6801) [nM] |
| --- | --- | --- | --- | --- | --- |
| AILGHIVIPR [Peptide 9017.0224] | 31 | 48 | 2 | 102 | 42 |
| AILGHIVRPR [Peptide 9017.0226] | 49 | 160 | 7.1 | 240 | 234 |
| AIVVWTIAY [Peptide 9017.0115] | 121 | 9.2 | 3190 | 5230 | 7190 |
| ALFTAQEAK [Peptide 88.0323] | 28 | 13 | 2660 | 16100 | 603 |
| ALTALIKPKK [Peptide 9017.0229] | 529 | 430 | 901 | > 20000 | 2100 |
| AQIEHWKLTR [Peptide 88.0226] | 2070 | 63 | 293 | > 20000 | 2900 |
| AQVLHLLKRK [Peptide 1587.52] | 339 | 308 | 18200 | > 20000 | > 20000 |
| ATLESITKK [Peptide 78.0300] | 56 | 18 | 3200 | > 20000 | 1950 |
| ATMCRHYKR [Peptide 1587.08] | 90 | 28 | 10 | 42 | 60 |
| ATNKMFCQLAK [Peptide 1556.47] | 29 | 7.3 | 160 | > 20000 | 1620 |
| ATTPIIHLK [Peptide 1589.18] | 9.7 | 7.6 | 49 | 11200 | 6.7 |
| AVMCRHYKR [Peptide 1587.53] | 213 | 31 | 14 | 59 | 25 |
| AVNKMFCQLAK [Peptide 1556.46] | 55 | 10 | 284 | > 20000 | 1310 |
| CFFTRTWSR [Peptide 88.0382] | 13500 | 1490 | 4.3 | 3 | 52 |
| CTYSPALNR [Peptide 1556.42] | 27 | 9.6 | 17 | 8.6 | 19 |
| DLPSQIEHWK [Peptide 88.0212] | > 20000 | > 20000 | > 20000 | > 20000 | 25 |
| EFMSFLTALK [Peptide 1587.10] | 477 | 683 | 5960 | 21 | 20 |
| EFTAFLDAFK [Peptide 88.0179] | 5790 | 968 | 16500 | 14 | 127 |
| EFTAFLGAFK [Peptide 88.0167] | 4670 | 293 | > 20000 | 35 | 197 |
| EQNEALELK [Peptide 1556.69] | 166 | 128 | 2300 | > 20000 | 11800 |
| ESKKEVESK [Peptide 9017.0083] | > 20000 | 8040 | > 20000 | > 20000 | 158 |
| ETLNASPYK [Peptide 1589.39] | 163 | 27 | > 20000 | 4710 | 28 |
| ETQRQQFLK [Peptide 1589.32] | 1010 | 28 | 3920 | 80 | 30 |
| EVLMWKFDSR [Peptide 9017.0192] | > 20000 | 7630 | 436 | 62 | 2.8 |
| FADLTVVYR [Peptide 78.0318] | 19200 | 9020 | 1780 | 310 | 39 |
| FIHFRIGCR [Peptide 9017.0112] | 1010 | 7120 | 61 | 13 | 67 |
| FLSALKLFLK [Peptide 1587.38] | 715 | 165 | 984 | 2590 | 1560 |
| FLSQVKIPK [Peptide 1589.05] | 86 | 22 | 72 | 158 | 48 |

| Sequence | IC50 (HLA-A3.2 (A*0301)) [nM] | IC50 (HLA-A11 (A*1101)) [nM] | IC50 (A31 (A*3101)) [nM] | IC50 (A*3301) [nM] | IC50 (A*6801) [nM] |
| --- | --- | --- | --- | --- | --- |
| FTAFLVAFK [Peptide 88.0389] | 45 | 15 | 663 | 76 | 23 |
| FTDLRIVYR [Peptide 1550.08] | 2940 | 10500 | 65 | 9.7 | 158 |
| GLGISYGRK [Peptide 1577.25] | 64 | 2150 | > 20000 | > 20000 | > 20000 |
| GLYYWCDGEK [Peptide 88.0229] | 107 | 24 | 5100 | > 20000 | 10000 |
| GSLQYLALK [Peptide 9017.0096] | 17 | 6.6 | 72 | 14400 | 10000 |
| GSQPKTACNK [Peptide 9017.0202] | 472 | 30 | 1480 | > 20000 | 15800 |
| GTAKSVTCTR [Peptide 1556.31] | 960 | 98 | 214 | 168 | 208 |
| GTFKCSAGK [Peptide 88.0373] | 23 | 14 | 617 | 18200 | 81 |
| GTMCRHYKR [Peptide 1587.34] | 611 | 31 | 20 | 226 | 56 |
| GTRQARKNRR [Peptide 9017.0200] | 1550 | 2920 | 56 | 8370 | 1480 |
| GTVFGILIKR [Peptide 9012.0243] | 2560 | 27 | 46 | 3130 | 18 |
| GVLILALLR [Peptide 88.0338] | 2880 | 56 | 2300 | 3890 | 943 |
| GVSIEWRKRR [Peptide 9017.0221] | > 20000 | 6320 | 226 | 1680 | 8810 |
| GVVFGILIKK [Peptide 9012.0242] | 484 | 17 | > 20000 | > 20000 | 146 |
| HLFDYSWYK [Peptide 76.0165] | 4.1 | 0.99 | 36 | 61 | 2.1 |
| HLFGYSYYK [Peptide 76.0191] | 11 | 2.7 | 1800 | 3470 | 14 |
| HLFRYSWYK [Peptide 76.0171] | 21 | 16 | 62 | 83 | 27 |
| HLFTYSWYK [Peptide 76.0164] | 4.9 | 7.7 | 35 | 137 | 19 |
| HLFWYSWYK [Peptide 76.0168] | 6.4 | 5.3 | 28 | 39 | 3.4 |
| HLYGYSWYK [Peptide 76.0153] | 12 | 11 | 48 | 61 | 16 |
| HSRIGILRQR [Peptide 9017.0242] | 637 | 6910 | 9.8 | 418 | 253 |
| ILLLLIRFK [Peptide 88.0386] | 120 | 1880 | 48 | 402 | 2500 |
| ILYQSNPYPK [Peptide 9017.0198] | 8.8 | 14 | 549 | 11000 | 37 |
| ISWLGLRSLK [Peptide 9012.0234] | 31 | 18 | 265 | 2500 | 39 |
| ISYGRKKRR [Peptide 9017.0079] | 9280 | > 20000 | 36 | 1120 | 1360 |
| ISYGRKKRRQK [Peptide 73.0314] | 48 | 2810 | 3150 | > 20000 | 4430 |
| ITVSAELPR [Peptide 1556.18] | > 20000 | 739 | 6930 | 8710 | 25 |

From US9340577B2, “HLA binding motifs and peptides and their uses” (priority 1992, dated 2016)
